What was measured:
[1] = system: Tyrosine-protein kinase ABL1 (Homo sapiens), P00519 [H396P]; settings: Compound concentration 1000.0 nM
[2] = system: Tyrosine-protein kinase ABL1 (Homo sapiens), P00519 [Q252H]; settings: Compound concentration 1000.0 nM
[3] = target: RAC-gamma serine/threonine-protein kinase (Homo sapiens) (UniProt Q9Y243); settings: Compound concentration 1000.0 nM
[4] = target: Serine/threonine-protein kinase B-raf (Homo sapiens) (UniProt P15056); settings: Compound concentration 1000.0 nM
[5] = target: Serine/threonine-protein kinase BRSK1 (Homo sapiens) (UniProt Q8TDC3); settings: Compound concentration 1000.0 nM
[6] = target: Calcium/calmodulin-dependent protein kinase type II subunit delta (Homo sapiens) (UniProt Q13557); settings: Compound concentration 1000.0 nM
[7] = target: Calcium/calmodulin-dependent protein kinase type IV (Homo sapiens) (UniProt Q16566); settings: Compound concentration 1000.0 nM
[8] = target: Cyclin-dependent kinase 4 (Homo sapiens) (UniProt P11802); settings: Compound concentration 1000.0 nM
[9] = target: Cyclin-dependent kinase 7 (Homo sapiens) (UniProt P50613); settings: Compound concentration 1000.0 nM
[10] = target: Dual specificity protein kinase CLK4 (Homo sapiens) (UniProt Q9HAZ1); settings: Compound concentration 1000.0 nM
[11] = target: Casein kinase I isoform gamma-3 (Homo sapiens) (UniProt Q9Y6M4); settings: Compound concentration 1000.0 nM
[12] = target: Casein kinase II subunit alpha (Homo sapiens) (UniProt P68400); settings: Compound concentration 1000.0 nM
[13] = target: Tyrosine-protein kinase Fgr (Homo sapiens) (UniProt P09769); settings: Compound concentration 1000.0 nM
[14] = system: Receptor-type tyrosine-protein kinase FLT3 (Homo sapiens), P36888 [R834Q]; settings: Compound concentration 1000.0 nM
[15] = target: Beta-adrenergic receptor kinase 1 (Homo sapiens) (UniProt P25098); settings: Compound concentration 1000.0 nM
[16] = target: Glycogen synthase kinase-3 alpha (Homo sapiens) (UniProt P49840); settings: Compound concentration 1000.0 nM
[17] = target: Serine/threonine-protein kinase haspin (Homo sapiens) (UniProt Q8TF76); settings: Compound concentration 1000.0 nM
[18] = target: Tyrosine-protein kinase JAK3 (Homo sapiens) (UniProt P52333); settings: Compound concentration 1000.0 nM
[19] = target: Mast/stem cell growth factor receptor Kit (Homo sapiens) (UniProt P10721); settings: Compound concentration 1000.0 nM
[20] = target: MAP/microtubule affinity-regulating kinase 4 (Homo sapiens) (UniProt Q96L34); settings: Compound concentration 1000.0 nM
[21] = target: Dual specificity mitogen-activated protein kinase kinase 3 (Homo sapiens) (UniProt P46734); settings: Compound concentration 1000.0 nM
[22] = target: Dual specificity mitogen-activated protein kinase kinase 6 (Homo sapiens) (UniProt P52564); settings: Compound concentration 1000.0 nM
[23] = target: Mitogen-activated protein kinase kinase kinase 9 (Homo sapiens) (UniProt P80192); settings: Compound concentration 1000.0 nM
[24] = target: Serine/threonine-protein kinase MRCK beta (Homo sapiens) (UniProt Q9Y5S2); settings: Compound concentration 1000.0 nM
[25] = target: Serine/threonine-protein kinase 4 (Homo sapiens) (UniProt Q13043); settings: Compound concentration 1000.0 nM
[26] = target: Myosin light chain kinase 2, skeletal/cardiac muscle (Homo sapiens) (UniProt Q9H1R3); settings: Compound concentration 1000.0 nM
[27] = target: Myosin light chain kinase family member 4 (Homo sapiens) (UniProt Q86YV6); settings: Compound concentration 1000.0 nM
[28] = target: Calcium-dependent protein kinase 1 (Plasmodium falciparum) (UniProt P62344); settings: Compound concentration 1000.0 nM
[29] = target: Cyclin-dependent kinase 14 (Homo sapiens) (UniProt O94921); settings: Compound concentration 1000.0 nM
[30] = target: Phosphatidylinositol 4,5-bisphosphate 3-kinase catalytic subunit alpha isoform (Homo sapiens) (UniProt P42336); settings: Compound concentration 1000.0 nM
[31] = target: Phosphatidylinositol 4-phosphate 5-kinase type-1 gamma (Homo sapiens) (UniProt O60331); settings: Compound concentration 1000.0 nM
[32] = target: Protein kinase C epsilon type (Homo sapiens) (UniProt Q02156); settings: Compound concentration 1000.0 nM
[33] = target: Ribosomal protein S6 kinase alpha-5 (Homo sapiens) (UniProt O75582); settings: Compound concentration 1000.0 nM
[34] = target: Ribosomal protein S6 kinase alpha-3 (Homo sapiens) (UniProt P51812); settings: Compound concentration 1000.0 nM
[35] = target: Serine/threonine-protein kinase 35 (Homo sapiens) (UniProt Q8TDR2); settings: Compound concentration 1000.0 nM
[36] = target: Non-receptor tyrosine-protein kinase TYK2 (Homo sapiens) (UniProt P29597); settings: Compound concentration 1000.0 nM
[37] = target: Serine/threonine-protein kinase ULK3 (Homo sapiens) (UniProt Q6PHR2); settings: Compound concentration 1000.0 nM
[38] = target: Vascular endothelial growth factor receptor 2 (Homo sapiens) (UniProt P35968); settings: Compound concentration 1000.0 nM
[39] = target: Serine/threonine-protein kinase WNK2 (Homo sapiens) (UniProt Q9Y3S1); settings: Compound concentration 1000.0 nM
[40] = target: Serine/threonine-protein kinase WNK4 (Homo sapiens) (UniProt Q96J92); settings: Compound concentration 1000.0 nM
[41] = target: Serine/threonine-protein kinase 32B (Homo sapiens) (UniProt Q9NY57); settings: Compound concentration 1000.0 nM
[42] = target: 5-hydroxytryptamine receptor 1B (Homo sapiens) (UniProt P28222); settings: Compound concentration 10.0 uM
[43] = target: D(4) dopamine receptor (Homo sapiens) (UniProt P21917); settings: Compound concentration 10.0 uM
[44] = target: Histamine H4 receptor (Homo sapiens) (UniProt Q9H3N8); settings: Compound concentration 10.0 uM
[45] = target: Muscarinic acetylcholine receptor M5 (Homo sapiens) (UniProt P08912); settings: Compound concentration 10.0 uM

Chain of Myosin light chain kinase family member 4 (Homo sapiens) (Q86YV6 whole entry): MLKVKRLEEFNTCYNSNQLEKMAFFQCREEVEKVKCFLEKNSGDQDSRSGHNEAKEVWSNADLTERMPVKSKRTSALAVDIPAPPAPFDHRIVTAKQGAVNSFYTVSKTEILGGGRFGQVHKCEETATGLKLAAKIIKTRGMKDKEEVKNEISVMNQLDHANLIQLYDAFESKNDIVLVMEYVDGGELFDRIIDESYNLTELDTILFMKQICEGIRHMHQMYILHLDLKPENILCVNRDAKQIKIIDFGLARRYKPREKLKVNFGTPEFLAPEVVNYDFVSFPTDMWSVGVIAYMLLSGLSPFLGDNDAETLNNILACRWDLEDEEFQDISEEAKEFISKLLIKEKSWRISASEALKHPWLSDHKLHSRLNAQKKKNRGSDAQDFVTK
Chain of Phosphatidylinositol 4,5-bisphosphate 3-kinase catalytic subunit alpha isoform (Homo sapiens) (P42336 whole entry, canonical isoform): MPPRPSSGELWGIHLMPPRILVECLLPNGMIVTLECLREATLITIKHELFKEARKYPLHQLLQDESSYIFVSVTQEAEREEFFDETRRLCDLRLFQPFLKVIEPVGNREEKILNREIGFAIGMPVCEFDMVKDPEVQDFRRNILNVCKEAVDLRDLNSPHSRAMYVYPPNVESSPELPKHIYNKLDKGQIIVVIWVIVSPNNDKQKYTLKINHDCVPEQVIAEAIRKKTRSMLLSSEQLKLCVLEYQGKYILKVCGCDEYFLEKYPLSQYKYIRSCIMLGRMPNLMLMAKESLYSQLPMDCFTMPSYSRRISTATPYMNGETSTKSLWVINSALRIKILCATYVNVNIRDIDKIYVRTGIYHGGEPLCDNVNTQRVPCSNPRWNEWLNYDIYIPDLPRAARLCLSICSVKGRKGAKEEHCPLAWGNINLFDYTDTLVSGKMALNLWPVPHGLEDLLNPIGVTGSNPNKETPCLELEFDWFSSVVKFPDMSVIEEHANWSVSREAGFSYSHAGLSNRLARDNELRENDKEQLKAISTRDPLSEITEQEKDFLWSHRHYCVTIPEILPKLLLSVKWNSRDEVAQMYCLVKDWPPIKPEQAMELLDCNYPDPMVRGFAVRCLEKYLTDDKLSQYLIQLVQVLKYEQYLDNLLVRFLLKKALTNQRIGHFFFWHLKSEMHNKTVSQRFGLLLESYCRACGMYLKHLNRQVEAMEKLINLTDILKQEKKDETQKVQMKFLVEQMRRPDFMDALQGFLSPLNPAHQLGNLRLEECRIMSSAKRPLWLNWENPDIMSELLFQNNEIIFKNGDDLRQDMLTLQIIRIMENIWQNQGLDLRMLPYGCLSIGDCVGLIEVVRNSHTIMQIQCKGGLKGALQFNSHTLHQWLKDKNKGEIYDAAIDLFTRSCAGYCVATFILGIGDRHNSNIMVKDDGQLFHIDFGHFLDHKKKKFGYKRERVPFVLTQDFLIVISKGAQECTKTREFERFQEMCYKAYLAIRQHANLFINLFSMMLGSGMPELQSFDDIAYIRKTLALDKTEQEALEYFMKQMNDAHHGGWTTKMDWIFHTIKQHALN
Chain of Beta-adrenergic receptor kinase 1 (Homo sapiens) (P25098 whole entry): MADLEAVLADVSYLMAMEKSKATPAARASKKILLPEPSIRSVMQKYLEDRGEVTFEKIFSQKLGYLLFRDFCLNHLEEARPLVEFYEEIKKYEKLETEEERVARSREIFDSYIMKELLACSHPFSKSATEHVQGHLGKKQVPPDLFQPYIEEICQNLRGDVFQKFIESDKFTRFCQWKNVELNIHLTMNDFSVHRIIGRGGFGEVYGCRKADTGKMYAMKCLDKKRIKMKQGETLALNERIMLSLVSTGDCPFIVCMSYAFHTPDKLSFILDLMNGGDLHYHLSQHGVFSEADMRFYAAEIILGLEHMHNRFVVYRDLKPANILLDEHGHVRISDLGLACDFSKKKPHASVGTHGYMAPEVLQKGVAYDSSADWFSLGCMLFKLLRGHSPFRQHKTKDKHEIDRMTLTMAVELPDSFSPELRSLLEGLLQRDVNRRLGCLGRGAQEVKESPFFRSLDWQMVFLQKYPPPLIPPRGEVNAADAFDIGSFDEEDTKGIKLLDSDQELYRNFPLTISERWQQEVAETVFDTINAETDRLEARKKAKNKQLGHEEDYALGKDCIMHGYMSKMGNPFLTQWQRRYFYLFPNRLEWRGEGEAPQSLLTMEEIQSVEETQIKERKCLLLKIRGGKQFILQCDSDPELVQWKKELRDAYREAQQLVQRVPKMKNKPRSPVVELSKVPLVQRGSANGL
Chain of Cyclin-dependent kinase 14 (Homo sapiens) (O94921 whole entry, canonical isoform): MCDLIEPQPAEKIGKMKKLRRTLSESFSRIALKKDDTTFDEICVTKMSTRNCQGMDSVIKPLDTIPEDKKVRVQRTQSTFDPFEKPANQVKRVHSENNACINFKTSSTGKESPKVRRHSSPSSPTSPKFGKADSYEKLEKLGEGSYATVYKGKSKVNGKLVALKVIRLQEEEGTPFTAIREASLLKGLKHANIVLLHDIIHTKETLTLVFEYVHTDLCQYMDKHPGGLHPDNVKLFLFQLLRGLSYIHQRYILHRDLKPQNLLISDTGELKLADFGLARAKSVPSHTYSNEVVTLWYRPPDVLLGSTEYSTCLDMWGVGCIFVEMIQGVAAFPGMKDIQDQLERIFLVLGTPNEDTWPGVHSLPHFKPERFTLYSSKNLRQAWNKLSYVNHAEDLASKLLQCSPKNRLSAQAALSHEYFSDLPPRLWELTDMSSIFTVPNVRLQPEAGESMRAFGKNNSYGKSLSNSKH
Chain of Serine/threonine-protein kinase 32B (Homo sapiens) (Q9NY57 whole entry): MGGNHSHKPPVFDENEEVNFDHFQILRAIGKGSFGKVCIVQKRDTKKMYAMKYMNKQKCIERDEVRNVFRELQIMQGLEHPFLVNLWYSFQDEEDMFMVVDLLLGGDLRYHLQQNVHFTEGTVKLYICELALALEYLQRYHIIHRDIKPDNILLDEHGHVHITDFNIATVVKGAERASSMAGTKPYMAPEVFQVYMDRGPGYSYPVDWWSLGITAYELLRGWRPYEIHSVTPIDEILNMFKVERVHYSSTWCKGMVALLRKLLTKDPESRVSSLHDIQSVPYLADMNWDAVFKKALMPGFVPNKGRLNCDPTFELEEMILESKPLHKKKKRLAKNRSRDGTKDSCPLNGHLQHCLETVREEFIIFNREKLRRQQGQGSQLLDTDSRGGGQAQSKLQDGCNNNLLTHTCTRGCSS
Chain of Casein kinase I isoform gamma-3 (Homo sapiens) (Q9Y6M4 whole entry, looked up, canonical isoform): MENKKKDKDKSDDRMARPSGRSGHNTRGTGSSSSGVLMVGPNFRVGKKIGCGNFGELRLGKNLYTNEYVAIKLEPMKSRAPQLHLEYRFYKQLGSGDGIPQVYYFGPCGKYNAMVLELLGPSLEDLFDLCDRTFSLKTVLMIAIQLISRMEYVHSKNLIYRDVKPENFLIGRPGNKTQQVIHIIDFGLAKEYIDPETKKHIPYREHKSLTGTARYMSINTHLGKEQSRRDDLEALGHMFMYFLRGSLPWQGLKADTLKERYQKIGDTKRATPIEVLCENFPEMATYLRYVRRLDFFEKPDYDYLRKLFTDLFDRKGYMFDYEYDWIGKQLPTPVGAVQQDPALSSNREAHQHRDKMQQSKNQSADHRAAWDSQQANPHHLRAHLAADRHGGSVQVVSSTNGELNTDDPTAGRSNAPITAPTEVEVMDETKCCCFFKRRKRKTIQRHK
Chain of Tyrosine-protein kinase Fgr (Homo sapiens) (P09769 2-529 limits assumed): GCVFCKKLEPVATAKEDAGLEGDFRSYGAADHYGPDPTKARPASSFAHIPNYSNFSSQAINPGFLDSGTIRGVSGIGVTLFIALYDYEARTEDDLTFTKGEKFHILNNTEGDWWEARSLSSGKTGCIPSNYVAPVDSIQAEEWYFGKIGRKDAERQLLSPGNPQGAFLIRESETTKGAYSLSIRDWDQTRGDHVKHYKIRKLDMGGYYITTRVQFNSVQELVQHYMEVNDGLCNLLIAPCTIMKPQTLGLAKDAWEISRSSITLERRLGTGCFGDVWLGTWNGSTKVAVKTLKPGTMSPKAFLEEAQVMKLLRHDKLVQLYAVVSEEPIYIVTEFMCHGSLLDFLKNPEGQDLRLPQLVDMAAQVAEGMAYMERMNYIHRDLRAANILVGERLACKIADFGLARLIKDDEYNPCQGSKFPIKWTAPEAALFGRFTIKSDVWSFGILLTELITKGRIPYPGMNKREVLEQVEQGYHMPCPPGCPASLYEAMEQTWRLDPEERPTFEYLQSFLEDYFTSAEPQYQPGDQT
Chain of Cyclin-dependent kinase 4 (Homo sapiens) (P11802 whole entry): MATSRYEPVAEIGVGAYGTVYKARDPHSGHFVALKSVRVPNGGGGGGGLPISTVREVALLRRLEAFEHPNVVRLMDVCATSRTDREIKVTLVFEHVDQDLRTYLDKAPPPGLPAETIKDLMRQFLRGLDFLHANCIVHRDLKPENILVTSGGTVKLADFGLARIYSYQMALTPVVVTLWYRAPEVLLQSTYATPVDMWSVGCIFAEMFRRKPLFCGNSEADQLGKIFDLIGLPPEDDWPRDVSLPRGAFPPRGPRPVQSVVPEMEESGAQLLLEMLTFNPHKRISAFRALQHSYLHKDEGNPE
Chain of Dual specificity protein kinase CLK4 (Homo sapiens) (Q9HAZ1 whole entry, looked up, canonical isoform): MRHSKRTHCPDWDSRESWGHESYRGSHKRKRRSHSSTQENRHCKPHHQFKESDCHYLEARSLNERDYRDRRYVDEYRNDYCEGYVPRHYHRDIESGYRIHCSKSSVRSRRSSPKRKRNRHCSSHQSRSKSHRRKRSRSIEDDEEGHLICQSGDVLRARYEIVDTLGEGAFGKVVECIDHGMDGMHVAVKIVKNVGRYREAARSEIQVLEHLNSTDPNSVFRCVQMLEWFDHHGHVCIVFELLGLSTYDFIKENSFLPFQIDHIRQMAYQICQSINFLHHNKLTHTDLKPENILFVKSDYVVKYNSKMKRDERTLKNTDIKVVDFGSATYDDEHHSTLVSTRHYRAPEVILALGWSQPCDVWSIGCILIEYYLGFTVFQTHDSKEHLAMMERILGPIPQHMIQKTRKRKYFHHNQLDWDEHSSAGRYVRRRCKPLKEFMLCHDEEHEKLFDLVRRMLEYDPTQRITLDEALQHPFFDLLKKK

With `Cc1c(NC(=O)c2cc(C(N)=O)nc3cc(F)ccc23)c(C(F)(F)F)nn1Cc1ccc(C#N)cc1` [BAY-876] the residual activity [1] was 100%, the residual activity [2] was 100% and the residual activity [3] was 81%. It also gave a residual activity [4] of 91%, a residual activity [5] of 100% and a residual activity [6] of 90%. For the same compound, the residual activity [7] was 76%, the residual activity [8] was 100% and the residual activity [9] was 52%. It also gave a residual activity [10] of 87%, a residual activity [11] of 100% and a residual activity [12] of 78%. For the same compound, the residual activity [13] was 93%, the residual activity [14] was 83% and the residual activity [15] was 87%. The residual activity [16] was 100%, the residual activity [17] was 67% and the residual activity [18] was 90%. The residual activity [19] was 72%, the residual activity [20] was 100% and the residual activity [21] was 88%. The residual activity [22] was 100%, the residual activity [23] was 100% and the residual activity [24] was 100%. For the same compound, the residual activity [25] was 84%, the residual activity [26] was 90% and the residual activity [27] was 90%. For the same compound, the residual activity [28] was 92%, the residual activity [29] was 100% and the residual activity [30] was 100%. The residual activity [31] was 94%, the residual activity [32] was 74% and the residual activity [33] was 97%. For the same compound, the residual activity [34] was 82%, the residual activity [35] was 85% and the residual activity [36] was 77%. The residual activity [37] was 74%, the residual activity [38] was 80% and the residual activity [39] was 87%. For the same compound, the residual activity [40] was -0%, the residual activity [41] was 100% and the inhibition [42] was 2.6%. The inhibition [43] was 15.1%, the inhibition [44] was 29% and the inhibition [45] was 4.88%.
In the case of `Cc1c(NC(=O)c2cc(C(N)=O)nc3cc(F)ccc23)c(C(F)(F)F)nn1Cc1ccc(C(C)(C)C)cc1` [BAY-588], the residual activity [1] was 100%, the residual activity [2] was 84% and the residual activity [3] was 100%. For the same compound, the residual activity [4] was 81%, the residual activity [5] was 100% and the residual activity [6] was 84%. It also gave a residual activity [7] of 90%, a residual activity [8] of 100% and a residual activity [9] of 100%. The residual activity [10] was 100%, the residual activity [11] was 100% and the residual activity [12] was 100%. It also gave a residual activity [13] of 96%, a residual activity [14] of 100% and a residual activity [15] of 100%. For the same compound, the residual activity [16] was 98%, the residual activity [17] was 100% and the residual activity [18] was 100%. For the same compound, the residual activity [19] was 100%, the residual activity [20] was 97% and the residual activity [21] was 90%. It also gave a residual activity [22] of 92%, a residual activity [23] of 100% and a residual activity [24] of 96%. For the same compound, the residual activity [25] was 95%, the residual activity [26] was 87% and the residual activity [27] was 100%. The residual activity [28] was 100%, the residual activity [29] was 94% and the residual activity [30] was 100%. It also gave a residual activity [31] of 78%, a residual activity [32] of 67% and a residual activity [33] of 100%. The residual activity [34] was 100%, the residual activity [35] was 100% and the residual activity [36] was 100%. The residual activity [37] was 97%, the residual activity [38] was 100% and the residual activity [39] was 100%. It also gave a residual activity [40] of 100%, a residual activity [41] of 100% and an inhibition [42] of -7.67%. It also gave an inhibition [43] of 4.93%, an inhibition [44] of 13% and an inhibition [45] of 7.12%.
